Laboratory results reported in US9957257B2, “Amide compounds as 5-HT4 receptor agonists” (SUVEN LIFE SCIENCES LIMITED, priority 2015, dated 2018).

What was measured:
Radial arm maze = type: in vivo, rats; conditions: p.o.
Excerpt: The cognition enhancing properties of test compounds of this invention were estimated by using this model.
Radial arm maze consists of a central hub of 45 cm diameter. Each arm was of dimension 42.5×15×24 cm. The maze was elevated to a height of 1 m above the ground. The animals were placed on a restricted diet until they reached approximately 85% of their free feeding weight. During this diet restriction period animals were habituated to the novel feed (pellets). Once the rats reached approximately 85% of their free feeding weight, rats were habituated to the maze on the 1st and 2nd day. […] Animals were randomized on day 2. On the subsequent days the treatment was given as per the allotment. Each animal was introduced into the maze individually for a period of 10 minutes. The arms were baited only once and the animal had to learn the rule that repeated arm entries would not be rewarded. The trial ended once the rat had visited 16 arms or 10 minutes were over or all the pellets were eaten. The arm entries were recorded using the software. Once the trial was over the rat was removed and the maze was cleaned using soap water.

[1] = Object recognition task model; type: in vivo, Male Wistar rats; conditions: 0.1 mg/kg, p.o.
Method: The cognition enhancing properties of compounds of this invention were estimated by using this model.
Male Wistar rats (230-280 grams) were used as experimental animals. Four animals were housed in each cage. Animals were kept on 20% food deprivation before one day and given water ad libitum throughout the experiment and maintained on a 12 hours light/dark cycle. Also the rats were habituated to individual arenas for 1 hour in the absence of any objects.
One group of 12 rats received vehicle (1 mL/Kg) orally and another set of animals received compound of the formula (I) either orally or i.p., before one hour of the familiar (T1) and choice trial (T2).
The experiment was carried out in a 50×50×50 cm open field made up of acrylic. In the familiarization phase, (T1), the rats were placed individually in the open field for 3 minutes, in which two identical objects (plastic bottles, 12.5 cm height×5.5 cm diameter) covered in yellow masking tape alone (a1 and a2) were positioned in two adjacent corners, 10 cms from the walls. After 24 hours of the (T1) trial for long-term memory test, the same rats were placed in the same arena as they were placed in T1 trial. Choice phase (T2) rats were allowed to explore the open field for 3 minutes in presence of one familiar object (a3) and one novel object (b) (Amber color glass bottle, 12 cm high and 5 cm in diameter). Familiar objects presented similar textures, colors and sizes. During the T1 and T2 trial, explorations of each object (defined as sniffing, licking, chewing or having moving vibrissae whilst directing the nose towards the object at a distance of less than 1 cm) were recorded separately by stopwatch. Sitting on an object was not regarded as exploratory activity, however, it was rarely observed.
T1 is the total time spent exploring the familiar objects (a1+a2).
T2 is the total time spent exploring the familiar object and novel object (a3+b).
The object recognition test was performed as described by Behaviour Brain Research, 31 (1988), 47-59.

sAPPα = assay: Estimation of mice brain cortical sAPPα levels (ELISA); type: in vivo, Male C57BL/6J mice; conditions: 1 mg/kg, s.c., 60 minutes post treatment
Method: 3. The supernatant was discarded and to the precipitate, 4 times volume (0.8 mL/200 mg tissues) of TBS was added.
4. From the above centrifuged mixture the supernatant was discarded and 10 times volume of 6M Guanidine-HCl in 50 mM Tris buffer pH: 7.6 (500 μL/50 mg tissues) was added.
5. […] From this 5 μL of supernatant solution was taken and diluted with 155 μL of EIA buffer (dilution factor 32).
The entire procedure was followed as described in the ELISA kit manual (Mouse/Rat sAPPα ELISA, Catalog Number: JP27415, Innovation Beyond Limits International, Hamburg, Germany).
Statistical analyses were performed using the Graph Pad Prism (Version 4).

hERG = target: T1, hERG (Homo sapiens, UniProt Q12809); assay: Automated hERG patch clamp assay; type: cell-based; conditions: hERG-HEK293 cells, whole cell patch clamp
T1 construct: expressed in transfected cells; host or cells: HEK293 (hERG-HEK293)
Method: To study the cardiac safety of test compounds using automated hERG patch clamp assay, hERG-HEK293 cells were grown to 70% confluency and were harvested using accumax. The cells were then suspended in complete media and were incubated at 37° C. and 5% CO2 for 30 minutes before using these cells for the whole cell patch clamp assay. Whole cell patch clamp recordings were conducted on Nanion's Patchliner using I-V protocol of voltage step from holding potential of −80 mV to +40 mV for 500 ms and then to test potential for 500 ms and back to holding potential of −80 mV. Pulses were elicited every 10 seconds. Each test compound concentration was incubated for 5 minutes. Data analysis was done by plotting the raw data using Igor Pro software and IC50 values were calculated. Cells with resistance >1 Gohms and tail currents of >200 pA were taken into consideration for data analysis. Quinidine was used as positive control.

T1 sequence (Q12809 whole entry): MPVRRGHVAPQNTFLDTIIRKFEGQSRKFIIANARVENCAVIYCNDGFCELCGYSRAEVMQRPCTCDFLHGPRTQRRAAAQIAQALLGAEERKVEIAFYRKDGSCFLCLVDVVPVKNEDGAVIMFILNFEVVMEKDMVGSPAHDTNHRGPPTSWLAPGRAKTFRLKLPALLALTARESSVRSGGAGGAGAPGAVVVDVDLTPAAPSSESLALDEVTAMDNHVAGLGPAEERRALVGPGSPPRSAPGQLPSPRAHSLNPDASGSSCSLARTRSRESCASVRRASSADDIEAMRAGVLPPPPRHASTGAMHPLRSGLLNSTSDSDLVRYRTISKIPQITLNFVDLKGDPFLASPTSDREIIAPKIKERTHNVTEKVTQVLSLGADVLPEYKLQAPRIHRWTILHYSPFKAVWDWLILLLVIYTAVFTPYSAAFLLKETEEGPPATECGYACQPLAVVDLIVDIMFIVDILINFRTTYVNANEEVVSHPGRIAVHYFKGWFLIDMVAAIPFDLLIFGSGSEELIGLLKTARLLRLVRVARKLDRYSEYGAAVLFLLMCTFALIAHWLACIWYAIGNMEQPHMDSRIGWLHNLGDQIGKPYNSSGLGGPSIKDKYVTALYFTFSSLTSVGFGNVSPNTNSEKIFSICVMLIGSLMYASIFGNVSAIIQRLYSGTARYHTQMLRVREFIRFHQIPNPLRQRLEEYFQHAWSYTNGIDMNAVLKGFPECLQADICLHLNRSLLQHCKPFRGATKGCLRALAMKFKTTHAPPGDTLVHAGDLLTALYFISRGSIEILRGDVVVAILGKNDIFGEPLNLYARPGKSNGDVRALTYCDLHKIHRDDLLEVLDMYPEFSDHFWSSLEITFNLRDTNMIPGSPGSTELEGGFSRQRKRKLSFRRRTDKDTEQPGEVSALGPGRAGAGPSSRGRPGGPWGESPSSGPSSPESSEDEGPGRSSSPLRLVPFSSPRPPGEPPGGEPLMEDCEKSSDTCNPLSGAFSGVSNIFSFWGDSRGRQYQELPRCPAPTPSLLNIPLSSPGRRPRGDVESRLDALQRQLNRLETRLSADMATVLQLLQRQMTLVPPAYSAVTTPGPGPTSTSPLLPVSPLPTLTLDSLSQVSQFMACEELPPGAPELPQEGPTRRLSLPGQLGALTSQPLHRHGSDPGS

SMILES: CC(C)(O)CN1CCC(F)(CNC(=O)c2cc(Cl)c(N)c3ccoc23)CC1 [Example 50, 4-Amino-5-chloro-N-{[4-fluoro-1-(2-hydroxy-2-methylpropyl)-4-piperidinyl]methyl}benzofuran-7-carboxamide L(+)-tartarate]
- Reversal of Scopolamine Induced amnesia - Effective dose range (Radial arm maze): 1 mg/kg, p.o.
- Exploration time mean ± S.E.M, Familiar object [1]: 9.89 ± 1.49 s
- Exploration time mean ± S.E.M, Novel object [1]: 18.58 ± 2.44 s
- Inference [1]: Active
- increase in mice brain cortical sAPPα levels (sAPPα): 44%
- IC50 (hERG): > 10 µM
